The results in this text go back to patent US8722052B2, “Vaccinia virus protein A46 peptide and use thereof” (priority 2008, dated 2014).

Assay [1] concerns TLR4. Briefly: LPS-induced TNFα in primary human PBMC, ELISA. It counts as cell-based. The note with it: peptide 1, 5 or 25 μM 1 h before 10 ng/ml LPS, 6 h. Here is the method: FIGS. 13A and B are bar charts showing the effect of A467 and A464 on LPS-induced TNFα production and on cell viability in primary human cells. Peripheral blood mononuclear cells (PBMCs) were seeded in 96 well plates (1 ×10^6 cells/ml) 24 hours before treatment. A467 (SEQ ID NO. 23) and A464 (SEQ ID NO. 20) were added to the cells at 1, 5 and 25 μM 1 hour before stimulating with 10 ng/ml LPS. The peptides were added into the unstimulated control wells at 25 μM. Supernatants were collected 6 hours after stimulation and assayed for TNFα production by ELISA (A). The cells were assayed for viability by the MTT assay (B). No peptides were added to the control wells (black bars). Data is representative of at least three experiments each performed in triplicate and is expressed as mean±s.d;
TLR4, sequence (O00206 24-839): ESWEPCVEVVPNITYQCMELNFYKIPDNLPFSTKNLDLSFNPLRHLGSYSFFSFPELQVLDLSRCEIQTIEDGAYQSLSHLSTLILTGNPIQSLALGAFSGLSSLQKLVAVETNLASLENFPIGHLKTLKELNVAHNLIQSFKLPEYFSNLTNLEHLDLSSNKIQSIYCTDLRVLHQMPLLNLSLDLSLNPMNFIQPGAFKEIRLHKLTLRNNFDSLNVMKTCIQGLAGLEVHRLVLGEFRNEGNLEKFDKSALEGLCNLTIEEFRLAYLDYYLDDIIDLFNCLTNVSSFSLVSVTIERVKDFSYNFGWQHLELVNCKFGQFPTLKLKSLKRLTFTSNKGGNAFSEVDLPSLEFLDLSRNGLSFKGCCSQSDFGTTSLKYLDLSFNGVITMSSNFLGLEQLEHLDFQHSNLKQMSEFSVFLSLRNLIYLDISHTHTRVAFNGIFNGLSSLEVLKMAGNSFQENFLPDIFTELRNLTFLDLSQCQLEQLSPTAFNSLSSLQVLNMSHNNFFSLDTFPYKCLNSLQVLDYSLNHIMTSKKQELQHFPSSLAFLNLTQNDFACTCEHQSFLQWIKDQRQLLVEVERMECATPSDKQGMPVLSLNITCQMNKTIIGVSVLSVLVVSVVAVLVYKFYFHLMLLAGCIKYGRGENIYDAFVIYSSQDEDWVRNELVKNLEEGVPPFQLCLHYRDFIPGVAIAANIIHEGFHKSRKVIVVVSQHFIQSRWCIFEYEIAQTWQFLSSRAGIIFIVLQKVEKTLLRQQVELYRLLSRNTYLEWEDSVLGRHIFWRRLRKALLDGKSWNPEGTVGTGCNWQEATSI
TLR4, sequence (Q9Y6Y9 17-160 partner limits assumed): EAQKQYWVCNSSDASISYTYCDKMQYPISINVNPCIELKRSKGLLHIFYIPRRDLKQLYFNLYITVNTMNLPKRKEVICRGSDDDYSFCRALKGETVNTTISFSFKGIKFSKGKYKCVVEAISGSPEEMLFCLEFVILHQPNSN
FIGS. 14A and B are bar charts showing the comparison of the inhibitory effect of the L- and D-forms of A464 on LPS-induced TNFα in primary human and murine cells. PBMC (1×10^6 cells/ml, (A)) or immortalised murine macrophages (1.5×10^5 cells/ml, (B)) were seeded in 96 well plates 24 hours before treatment. L-form and D-form A464 peptides (with the 9R delivery peptide on the C-terminus, SEQ ID NO. 20) were added to the cells at a concentration of 1, 5 or 25 μM 1 hour before stimulating with 10 ng/ml LPS. Supernatants were collected 6 hours after stimulation and assayed for either human (A) or murine (B) TNFα production by ELISA. No peptides were added to the control wells (black bars). Data is representative of at least three experiments each performed in triplicate and is expressed as mean±s.d;
FIGS. 15A and B are bar charts showing the effect of the D-form A464 peptide with the TAT delivery sequence on LPS induced TNFα in primary human and murine cells. PBMC (A) and immortalised murine macrophages (B) were seeded in 96 well plates 24 hours before treatment. D-form of A467 (SEQ ID NO. 37) and A464 (SEQ ID NO. 36) with the TAT delivery sequence were added to the cells at a concentration of 1, 5 or 25 μM 1 hour before stimulating with 10 ng/ml LPS. The peptides were added into the unstimulated control wells at 25 μM. Supernatants were collected 6 hours after stimulation and assayed for either human (A) or murine (B) TNFα production by ELISA. No peptides were added to the control wells (black bars). Data is representative of at least three experiments each performed in triplicate and is expressed as mean±s.d;
FIGS. 16A and B are bar charts showing the effect of attaching 9R to the N-terminus of A464 on LPS-induced TNFα in primary human and murine cells. Immortalised murine macrophages (A) and PBMC (B) were seeded in 96 well plates 24 hours before treatment. L-form of A467 (SEQ ID NO. 39) and A464 (SEQ ID NO. 38) with the 9R-delivery sequence at the N-terminus were added to the cells at a concentration of 1, 5 or 25 μM 1 hour before stimulating with 10 ng/ml LPS. The peptides were added into the unstimulated control wells at […]. Supernatants were collected 6 hours after stimulation and assayed for either murine (A) or human (B) TNFα production by ELISA. No peptides were added to the control wells (black bars). Data is representative of at least three experiments each performed in triplicate and is expressed as mean±s.d;
FIGS. 17A and B are bar charts showing the effect of the D-form A464 with 9R at the N-terminus on LPS-induced TNFα in primary human and murine cells. Immortalised murine macrophages (A) and PBMC (B) were seeded in 96 well plates 24 hours before treatment. D-form of A467 (SEQ ID NO. 39) and A464 (SEQ ID NO. 38) peptides with the 9R-delivery sequence at N-terminus were added to the cells at a concentration of 1, 5 or 25 μM 1 hour before stimulating with 10 ng/ml LPS. The peptides were added into the unstimulated control wells at 25 μM. Supernatants were collected 6 hours after stimulation and assayed for either murine (A) or human (B) TNFα production by ELISA. No peptides were added to the control wells (black bars). […]
A general note: ELISA stands for enzyme-linked immunosorbent assay.

Assay [2] concerns IL-12p40. Briefly: LPS-induced serum IL-12p40 in mice, ELISA. The class given is in vivo. The conditions noted are these: female BALB/c mice, serum at 4 hours; for serum IL-12p40 level compared with PBS-treated animals: i.v. 1 μg LPS with 3 mg/kg peptide; for inhibition of LPS-induced serum IL-12p40: i.v. single bolus 1 μg LPS with 3 mg/kg peptide. The procedure:
FIG. 30 is a graph showing that A464 inhibits LPS-induced IL-12/23 p40 in vivo. Groups of 5 female BALB/c mice were injected i.v. with a single bolus of one of the following: PBS, 1 μg LPS, 1 μg LPS with 3 mg/kg D-9RN-A464 (SEQ ID NO. 38), 1 μg LPS with 3 mg/kg L-9RN-A464 (SEQ ID NO. 38), or 1 μg LPS with 3 mg/kg L-9RN-A467 (SEQ ID NO. 39). Four hours later, blood was harvested and serum derived. The serum was assayed for IL-12p40 by ELISA. Concentrations are expressed as pg/ml. * p<0.05, *** p<0.001 samples versus LPS. # p<0.01 samples versus PBS.
Cytokine and chemokine production from cells or mouse serum was measured by ELISA using Duoset kits from R&D systems, according to the manufacturer's instructions.
To do this we used a well characterised model of Gram negative sepsis, where mice are injected with LPS and serum cytokines are later analysed by ELISA. […] Mice were injected i.v. with LPS alone, or with peptide in the presence of LPS. Four hours later serum IL-12p40 concentrations were measured. […] Thus peptides based on the 464 sequence (SEQ ID No. 4) have efficacy in vivo. Thus peptides comprising the 464 sequence (SEQ ID No.4) can inhibit LPS induced proinflammatory IL-12p40 in vivo.

“And” between values parts separate entries of the source, which are not always exact repeats. Equal entries are not always repeated. “Also recorded” adds a separate entry of the source. Square brackets hold non-standard residues; d marks the D form. Ends that are not written are not given here.

For the substance “9RN-A464 (RRRRRRRRRKYSFKLILAEY) [Peptide 9RN-A464]”, the “inhibition of LPS-induced hTNFα production” value in assay [1] is listed as “inhibition was only observed from 5-25 μM”. Further, in assay [2] (listed as L-9RN-A464, 3 mg/kg), the “serum IL-12p40 level compared with PBS-treated animals” value is reported as “not significantly different from mice receiving only PBS; also recorded: not significantly different from the PBS-treated animals”. For the same substance, the “inhibition of LPS-induced serum IL-12p40” value in assay [2] is on record as “significantly inhibited LPS-induced IL-12p40”.

“D-9RN-A464 ([dR][dR][dR][dR][dR][dR][dR][dR][dR][dK][dY][dS][dF][dK][dL][dI][dL][dA][dE][dY]) [Peptide D-9RN-A464]”: the “inhibition of LPS-induced hTNFα production” value in assay [1] is reported as “inhibited TNFα only at concentration of 24 μM”. Moreover, the “serum IL-12p40 level compared with PBS-treated animals” value in assay [2] (3 mg/kg) is reported as “not significantly different from mice receiving only PBS; also recorded: not significantly different from the PBS-treated animals”. For the same substance, in assay [2], the “inhibition of LPS-induced serum IL-12p40” value is listed as “significantly inhibited LPS-induced IL-12p40”.

Regarding KYSFKLILAEYRRRRRRRRR [Peptide A464], in assay [1], the “inhibition of LPS-induced hTNFα production” value is “significant inhibition of TLR4 by A464 (SEQ ID No. 20) at 1 μM and 5 μM A464 (SEQ ID No. 20) peptide almost completely blocked hTNFα production”.
